{"source": "ChEMBL document CHEMBL1126330", "about": "“Synthesis of RP-67,580, a new potent nonpeptide substance P antagonist” (Bioorg Med Chem Lett, 1992)", "key": {"Substance-P receptor [1]": {"biological_target": "Substance-P receptor (Cavia porcellus, UniProt P30547)", "sequence (P30547 whole entry)": "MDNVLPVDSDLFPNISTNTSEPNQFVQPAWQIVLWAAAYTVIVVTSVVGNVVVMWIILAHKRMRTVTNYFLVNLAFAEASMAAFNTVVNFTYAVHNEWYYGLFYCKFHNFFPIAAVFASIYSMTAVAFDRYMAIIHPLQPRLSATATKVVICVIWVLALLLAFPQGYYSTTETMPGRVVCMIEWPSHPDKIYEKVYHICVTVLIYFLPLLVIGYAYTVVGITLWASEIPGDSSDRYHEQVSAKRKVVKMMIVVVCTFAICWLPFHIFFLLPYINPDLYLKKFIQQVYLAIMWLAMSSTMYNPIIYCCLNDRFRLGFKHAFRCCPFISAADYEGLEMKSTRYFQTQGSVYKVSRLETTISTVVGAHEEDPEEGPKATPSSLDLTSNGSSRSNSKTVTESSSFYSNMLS", "test": "Tested for inhibition of contractile effects of Tachykinin receptor 1 in guinea pig ileum preparation.", "assay_type": "functional, tissue-based", "settings": "read-out: pA2 (converted)"}, "Substance-P receptor [2]": {"biological_target": "Substance-P receptor (Rattus norvegicus, UniProt P14600)", "sequence (P14600 whole entry)": "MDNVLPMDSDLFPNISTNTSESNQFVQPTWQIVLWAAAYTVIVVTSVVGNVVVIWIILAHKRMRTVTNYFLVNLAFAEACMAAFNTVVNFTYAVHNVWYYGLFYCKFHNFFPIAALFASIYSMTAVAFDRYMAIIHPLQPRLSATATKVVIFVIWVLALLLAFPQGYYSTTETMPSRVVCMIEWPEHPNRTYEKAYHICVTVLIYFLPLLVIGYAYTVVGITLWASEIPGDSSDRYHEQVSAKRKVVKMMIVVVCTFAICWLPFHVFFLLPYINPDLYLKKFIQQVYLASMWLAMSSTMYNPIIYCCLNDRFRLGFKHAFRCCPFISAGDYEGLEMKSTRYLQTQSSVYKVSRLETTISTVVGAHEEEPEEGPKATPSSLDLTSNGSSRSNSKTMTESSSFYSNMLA", "test": "Tested for binding affinity towards Tachykinin receptor 1 by using [3H]SP binding assay in rat brain membranes", "assay_type": "cell membranes"}}, "note": "pKi: −log10 of the molar value."}
{"compound": "COc1ccccc1CC(=N)N1C[C@@H]2C(=O)CCC(c3ccccc3)(c3ccccc3)[C@@H]2C1", "values": [{"measurement": "Kb", "setting": "Substance-P receptor [1]", "value": 63.1, "unit": "nM"}, {"measurement": "pKi", "setting": "Substance-P receptor [2]", "value": 8.38}]}
